Experiment [1] deals with Casein kinase II subunit alpha' (Homo sapiens, UniProt P19784).
For experiment [2], the target named is Dual specificity mitogen-activated protein kinase kinase 2 (Homo sapiens, UniProt P36507).
The target of experiment [3] is T1, Mitogen-activated protein kinase kinase kinase 5 (Homo sapiens, UniProt Q99683).
T1 sequence (Q99683 whole entry): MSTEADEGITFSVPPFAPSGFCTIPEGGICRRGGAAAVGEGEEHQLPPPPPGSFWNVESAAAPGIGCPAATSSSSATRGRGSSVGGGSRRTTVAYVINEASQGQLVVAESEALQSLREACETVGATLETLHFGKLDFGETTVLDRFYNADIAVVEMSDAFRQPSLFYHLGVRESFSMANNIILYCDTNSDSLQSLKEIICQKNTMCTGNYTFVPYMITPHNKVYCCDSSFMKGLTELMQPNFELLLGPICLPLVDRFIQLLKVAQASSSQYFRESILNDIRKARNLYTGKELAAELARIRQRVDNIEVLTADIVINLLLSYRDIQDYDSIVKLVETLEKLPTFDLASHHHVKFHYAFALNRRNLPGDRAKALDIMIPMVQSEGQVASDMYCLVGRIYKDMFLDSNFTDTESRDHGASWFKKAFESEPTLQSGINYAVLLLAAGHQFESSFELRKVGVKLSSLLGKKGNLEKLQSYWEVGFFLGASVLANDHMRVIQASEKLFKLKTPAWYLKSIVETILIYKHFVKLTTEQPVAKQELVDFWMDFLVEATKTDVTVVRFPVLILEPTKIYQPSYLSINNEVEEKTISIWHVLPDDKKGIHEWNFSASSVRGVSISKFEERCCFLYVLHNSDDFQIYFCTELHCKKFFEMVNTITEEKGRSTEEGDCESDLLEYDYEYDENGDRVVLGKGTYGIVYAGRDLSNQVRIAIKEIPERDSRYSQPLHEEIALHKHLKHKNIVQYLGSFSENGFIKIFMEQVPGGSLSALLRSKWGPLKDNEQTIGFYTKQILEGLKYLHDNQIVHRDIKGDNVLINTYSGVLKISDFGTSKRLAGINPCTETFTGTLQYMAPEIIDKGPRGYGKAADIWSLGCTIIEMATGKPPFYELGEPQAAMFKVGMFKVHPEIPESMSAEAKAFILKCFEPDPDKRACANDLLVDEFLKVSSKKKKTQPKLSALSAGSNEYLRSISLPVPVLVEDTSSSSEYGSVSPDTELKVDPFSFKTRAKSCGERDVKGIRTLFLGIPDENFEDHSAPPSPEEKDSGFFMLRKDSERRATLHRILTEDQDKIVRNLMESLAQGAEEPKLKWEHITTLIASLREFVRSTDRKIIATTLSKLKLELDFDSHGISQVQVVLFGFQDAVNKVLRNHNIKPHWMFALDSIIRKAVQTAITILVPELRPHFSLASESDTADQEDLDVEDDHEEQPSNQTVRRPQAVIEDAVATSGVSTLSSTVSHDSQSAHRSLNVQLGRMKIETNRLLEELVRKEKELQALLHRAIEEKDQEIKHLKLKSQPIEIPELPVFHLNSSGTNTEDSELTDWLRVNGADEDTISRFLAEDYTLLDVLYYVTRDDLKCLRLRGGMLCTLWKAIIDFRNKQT

Experiment [4] deals with Mitogen-activated protein kinase kinase kinase kinase 5 (Homo sapiens, UniProt Q9Y4K4).
Sequence of Mitogen-activated protein kinase kinase kinase kinase 5 (Q9Y4K4 whole entry): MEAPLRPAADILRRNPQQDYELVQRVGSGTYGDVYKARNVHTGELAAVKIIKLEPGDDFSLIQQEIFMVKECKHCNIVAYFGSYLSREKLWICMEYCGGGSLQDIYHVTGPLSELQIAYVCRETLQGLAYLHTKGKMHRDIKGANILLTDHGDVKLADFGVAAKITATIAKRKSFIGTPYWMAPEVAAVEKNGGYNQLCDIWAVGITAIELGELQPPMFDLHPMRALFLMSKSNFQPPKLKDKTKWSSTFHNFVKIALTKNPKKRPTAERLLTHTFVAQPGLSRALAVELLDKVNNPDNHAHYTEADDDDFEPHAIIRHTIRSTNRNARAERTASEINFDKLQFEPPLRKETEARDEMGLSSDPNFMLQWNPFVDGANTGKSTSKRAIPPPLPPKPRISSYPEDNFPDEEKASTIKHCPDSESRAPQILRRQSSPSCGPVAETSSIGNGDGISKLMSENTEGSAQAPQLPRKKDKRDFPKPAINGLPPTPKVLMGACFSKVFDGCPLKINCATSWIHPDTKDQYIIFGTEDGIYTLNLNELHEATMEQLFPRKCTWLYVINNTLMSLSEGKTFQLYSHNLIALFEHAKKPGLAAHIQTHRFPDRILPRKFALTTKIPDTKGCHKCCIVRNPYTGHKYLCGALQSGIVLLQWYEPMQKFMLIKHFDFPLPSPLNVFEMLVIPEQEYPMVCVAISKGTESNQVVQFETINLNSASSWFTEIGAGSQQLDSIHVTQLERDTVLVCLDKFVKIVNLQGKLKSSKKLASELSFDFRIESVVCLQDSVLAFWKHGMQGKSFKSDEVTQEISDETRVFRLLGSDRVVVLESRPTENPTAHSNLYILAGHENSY
Experiment [5] deals with T2, Serine/threonine-protein kinase D3 (Homo sapiens, UniProt O94806).
T2 sequence (O94806 whole entry): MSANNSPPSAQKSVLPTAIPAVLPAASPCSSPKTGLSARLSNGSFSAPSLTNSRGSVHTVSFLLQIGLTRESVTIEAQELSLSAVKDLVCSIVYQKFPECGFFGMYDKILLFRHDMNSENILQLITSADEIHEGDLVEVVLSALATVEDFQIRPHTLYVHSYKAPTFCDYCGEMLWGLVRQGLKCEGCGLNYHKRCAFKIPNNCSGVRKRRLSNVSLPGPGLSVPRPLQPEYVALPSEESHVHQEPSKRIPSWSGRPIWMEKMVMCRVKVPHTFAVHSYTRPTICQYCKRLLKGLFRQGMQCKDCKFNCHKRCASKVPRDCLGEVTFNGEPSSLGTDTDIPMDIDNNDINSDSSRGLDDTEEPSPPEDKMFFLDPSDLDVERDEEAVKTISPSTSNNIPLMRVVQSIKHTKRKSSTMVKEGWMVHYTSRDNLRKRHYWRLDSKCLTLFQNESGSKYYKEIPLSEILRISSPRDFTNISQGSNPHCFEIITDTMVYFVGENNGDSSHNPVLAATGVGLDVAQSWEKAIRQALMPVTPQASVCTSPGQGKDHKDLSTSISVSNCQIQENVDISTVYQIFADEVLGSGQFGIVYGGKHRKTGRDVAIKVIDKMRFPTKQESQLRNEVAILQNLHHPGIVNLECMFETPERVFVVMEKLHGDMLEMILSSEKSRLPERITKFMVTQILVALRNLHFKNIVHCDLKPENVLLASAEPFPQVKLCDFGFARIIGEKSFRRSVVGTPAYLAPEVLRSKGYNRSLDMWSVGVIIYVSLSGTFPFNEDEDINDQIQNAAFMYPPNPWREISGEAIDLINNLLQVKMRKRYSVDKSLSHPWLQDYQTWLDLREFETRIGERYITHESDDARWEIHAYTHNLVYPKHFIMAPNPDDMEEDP

The target in experiment [6] is T3, Tyrosine-protein kinase Tec (Homo sapiens, UniProt P42680).
T3 sequence (P42680 whole entry): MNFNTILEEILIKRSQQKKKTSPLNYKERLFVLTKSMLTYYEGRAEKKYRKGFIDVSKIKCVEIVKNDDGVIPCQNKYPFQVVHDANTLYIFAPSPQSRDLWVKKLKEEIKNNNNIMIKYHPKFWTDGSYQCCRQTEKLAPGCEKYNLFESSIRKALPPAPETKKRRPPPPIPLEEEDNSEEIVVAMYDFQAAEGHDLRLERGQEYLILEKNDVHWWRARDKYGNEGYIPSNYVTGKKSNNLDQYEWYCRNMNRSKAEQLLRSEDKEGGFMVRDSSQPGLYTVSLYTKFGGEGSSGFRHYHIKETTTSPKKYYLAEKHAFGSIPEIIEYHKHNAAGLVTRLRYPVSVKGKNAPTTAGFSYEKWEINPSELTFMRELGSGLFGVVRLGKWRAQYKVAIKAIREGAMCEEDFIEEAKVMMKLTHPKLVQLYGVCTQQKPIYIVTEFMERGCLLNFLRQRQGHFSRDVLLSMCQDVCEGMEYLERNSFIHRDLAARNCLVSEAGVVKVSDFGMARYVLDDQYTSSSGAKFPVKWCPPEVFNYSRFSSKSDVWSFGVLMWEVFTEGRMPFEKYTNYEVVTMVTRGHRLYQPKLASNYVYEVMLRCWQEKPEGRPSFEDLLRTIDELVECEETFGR

pKd: −log10 of the molar value. The source made the active and inactive calls. For most assays here, no stated cut-off is given here; in the data, actives have a measured Kd and inactives only a lower limit. Bounds are passed on as bounds.

Sequence of Dual specificity mitogen-activated protein kinase kinase 2 (P36507 whole entry): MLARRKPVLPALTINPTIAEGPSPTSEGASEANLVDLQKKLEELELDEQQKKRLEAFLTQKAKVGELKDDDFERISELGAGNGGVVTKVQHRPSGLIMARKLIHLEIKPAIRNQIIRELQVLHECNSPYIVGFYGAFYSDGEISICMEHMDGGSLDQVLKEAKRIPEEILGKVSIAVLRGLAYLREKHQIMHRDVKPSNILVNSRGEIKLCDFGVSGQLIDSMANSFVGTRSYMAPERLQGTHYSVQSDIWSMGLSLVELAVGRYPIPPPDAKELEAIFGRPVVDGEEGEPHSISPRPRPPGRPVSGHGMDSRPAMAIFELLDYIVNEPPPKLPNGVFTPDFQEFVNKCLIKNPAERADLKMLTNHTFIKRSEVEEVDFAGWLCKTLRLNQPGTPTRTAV
Sequence of Casein kinase II subunit alpha' (P19784 whole entry): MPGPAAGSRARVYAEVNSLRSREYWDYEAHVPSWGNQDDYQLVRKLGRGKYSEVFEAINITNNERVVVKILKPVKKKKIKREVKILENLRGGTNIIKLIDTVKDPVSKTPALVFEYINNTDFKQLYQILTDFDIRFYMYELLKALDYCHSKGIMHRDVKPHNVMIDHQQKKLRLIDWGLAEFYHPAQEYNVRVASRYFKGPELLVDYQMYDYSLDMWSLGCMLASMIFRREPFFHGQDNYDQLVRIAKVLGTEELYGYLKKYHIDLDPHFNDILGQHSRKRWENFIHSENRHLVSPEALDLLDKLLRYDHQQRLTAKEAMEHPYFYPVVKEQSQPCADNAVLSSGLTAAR

What is called Kd is the free concentration of one partner at which half of the binding sites on the other are occupied at equilibrium, for simple one-to-one binding. In general, pKd refers to the negative decadic logarithm of the Kd, by convention in mol/L. High values mean a low Kd, low ones a high Kd. As to `Cc1cc(-c2cc(O)ccc2Cl)cc2nnc(Nc3ccc(OCCN4CCCC4)cc3)nc12`, the Kd in experiment [1], in experiment [2], in experiment [3], in experiment [4] and in experiment [6] was > 30 µM (inactive) each time. In experiment [5], the negative logarithm of the Kd (pKd) was 8.52.
On to `O=C1NC(=O)/C(=C/c2ccc3nccc(-c4ccncc4)c3c2)S1` [GSK-1059615], for which the Kd in experiment [1] was 0.017 µM (active); in experiment [2], 5.25 µM (active); in experiment [3] it was > 30 µM (inactive); in experiment [4], > 30 µM (inactive); in experiment [5], > 30 µM (inactive); in experiment [6] it was > 30 µM (inactive).
In the case of `CC[C@@H]1C(=O)N(C)c2cnc(Nc3ccc(C(=O)N[C@H]4CC[C@H](N5CCN(CC6CC6)CC5)CC4)cc3OC)nc2N1C(C)C` [VOLASERTIB], the Kd in experiment [1], in experiment [2], in experiment [3], in experiment [4], in experiment [5] and in experiment [6] was > 30 µM (inactive) throughout.
Regarding `O=c1sn(-c2cccc3ccccc23)c(=O)n1Cc1ccccc1` [TIDEGLUSIB], the Kd in experiment [1], in experiment [2], in experiment [3], in experiment [4], in experiment [5] and in experiment [6] was > 30 µM (inactive) throughout.
Consider `CO[C@H]1C[C@@H]2CC[C@@H](C)[C@@](O)(O2)C(=O)C(=O)N2CCCC[C@H]2C(=O)O[C@H]([C@H](C)C[C@@H]2CC[C@@H](OCCO)[C@H](OC)C2)CC(=O)[C@H](C)/C=C(\C)[C@@H](O)[C@@H](OC)C(=O)[C@H](C)C[C@H](C)/C=C/C=C/C=C/1C` [EVEROLIMUS], for which the Kd in experiment [1], in experiment [2], in experiment [3], in experiment [4], in experiment [5] and in experiment [6] was > 30 µM (inactive) in each case.
In the case of `CN(C)C(=O)c1cc2cnc(Nc3ccc(N4CCNCC4)cn3)nc2n1C1CCCC1` [RIBOCICLIB], the Kd in experiment [1], in experiment [2], in experiment [3], in experiment [4], in experiment [5] and in experiment [6] was > 30 µM (inactive) throughout.
Take `CC(C)Nc1cc(-c2c[nH]c(C(=O)N[C@H](CO)c3cccc(Cl)c3)c2)c(Cl)cn1` [ULIXERTINIB]: the Kd in experiment [1], in experiment [2], in experiment [3], in experiment [4], in experiment [5] and in experiment [6] was > 30 µM (inactive) in each case.

The values above are taken from ChEMBL document CHEMBL3991601, “The target landscape of clinical kinase drugs” (Science, 2017).
